The source of these data is patent US20250122174A1 (Shenzhen Yuanli Shenwan Innovative Medicine Co., Ltd., priority 2022, published 2025).

As usually defined, the pIC50 is the IC50 on a negative log10 scale, so that one unit is a factor of ten. Low values mean a high IC50, high ones a low IC50.

pIC50: −log10 of the molar value.

Chain of HPK1 (Q92918 1-346 limits assumed): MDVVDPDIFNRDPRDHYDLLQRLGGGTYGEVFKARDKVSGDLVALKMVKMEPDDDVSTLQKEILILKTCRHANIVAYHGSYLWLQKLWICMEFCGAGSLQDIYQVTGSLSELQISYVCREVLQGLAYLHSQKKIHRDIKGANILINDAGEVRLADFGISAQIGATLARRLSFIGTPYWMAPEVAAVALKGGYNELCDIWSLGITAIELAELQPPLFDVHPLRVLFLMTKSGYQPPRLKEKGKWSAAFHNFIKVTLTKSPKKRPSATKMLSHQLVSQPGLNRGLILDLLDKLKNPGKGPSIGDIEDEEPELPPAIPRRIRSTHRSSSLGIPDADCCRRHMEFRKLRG

The assay concerns the target HPK1 (Homo sapiens (Human), UniProt Q92918). Briefly: HPK1 Inhibition Assay (ADP-Glo kinase assay). Type of assay: biochemical. The conditions noted are these: ATP 10 μM. Summed up:
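ADP-Glo luminescence read-out after 1 h room-temperature kinase reaction with 10 μM ATP and 0.1 μg/ml MBP. Recombinant human HPK1 at 7.5 ng/μl; buffer 40 mM Tris pH 7.5, 20 mM MgCl2. Compounds serially diluted 5-fold over 10 points from 10 mM DMSO stock.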
Compound `Cc1nc2c(N3CCC[C@H]3CN)c(NC(=O)c3ccc(=O)n(-c4c(F)cccc4F)n3)ccc2n1C` [Example 93, (S)-N-(4-(2-(aminomethyl)pyrrolidin-1-yl)-1,2-dimethyl-1H-benzo[d]imidazol-5-yl)-1-(2,6-difluorophenyl)-6-oxo-1,6-dihydropyridazine-3-carboxamide] had a pIC50 of over 7.00. Regarding `Cc1nc2c(N3C[C@H](N)C(F)(F)C3)c(NC(=O)c3ccc(=O)n(-c4c(F)cccc4F)n3)ccc2n1C` [Example 94, (S)-N-(4-(4-amino-3,3-difluoropyrrolidin-1-yl)-1,2-dimethyl-1H-benzo[d]imidazol-5-yl)-1-(2,6-difluorophenyl)-6-oxo-1,6-dihydropyridazine-3-carboxamide], the pIC50 is over 7.00. In turn, `Cc1nc2c(N3CCC(N)C(F)(F)C3)c(NC(=O)c3ccc(=O)n(-c4c(F)cccc4F)n3)ccc2n1C` (stereo not shown) [Example 95, N-(4-(4-amino-3,3-difluoropiperidin-1-yl)-1,2-dimethyl-1H-benzo[d]imidazol-5-yl)-1-(2,6-difluorophenyl)-6-oxo-1,6-dihydropyridazine-3-carboxamide] showed a pIC50 of over 7.00. With `Cc1nc2c(N3CC(N)CC(F)(F)C3)c(NC(=O)c3ccc(=O)n(-c4c(F)cccc4F)n3)ccc2n1C` (stereo not shown) [Example 96, N-(4-(5-amino-3,3-difluoropiperidin-1-yl)-1,2-dimethyl-1H-benzo[d]imidazol-5-yl)-1-(2,6-difluorophenyl)-6-oxo-1,6-dihydropyridazine-3-carboxamide] the figure was over 7.00; with `Cn1c(C2CC2)nc2c(N3CC[C@H](N)C3)c(NC(=O)c3ccc(=O)n(-c4c(F)cccc4F)n3)ccc21` [Example 97, N-{4-[(35)-3-aminopyrrolidin-1-yl]-2-cyclopropyl-1-methyl-1,3-benzodiazol-5-yl}-1-(2,6-difluorophenyl)-6-oxopyridazine-3-carboxamide], over 7.00. With `Cn1c(C(C)(C)C)nc2c(N3CC[C@H](N)C3)c(NC(=O)c3ccc(=O)n(-c4c(F)cccc4F)n3)ccc21` [Example 98, N-{4-[(3S)-3-aminopyrrolidin-1-yl]-2-tert-butyl-1-methyl-1,3-benzodiazol-5-yl}-1-(2,6-difluorophenyl)-6-oxopyridazine-3-carboxamide] the figure was over 7.00; with `Cn1c(C(C)(C)C)nc2c(N3CC[C@@H](N)C3)c(NC(=O)c3ccc(=O)n(-c4c(F)cccc4F)n3)ccc21` [Example 99, (R)-N-(4-(3-aminopyrrolidin-1-yl)-2-(tert-butyl)-1-methyl-1H-benzo[d]imidazol-5-yl)-1-(2,6-difluorophenyl)-6-oxo-1,6-dihydropyridazine-3-carboxamide], over 7.00; with `Cn1c(C(C)(C)C)nc2c(N3CC[C@@H](O)C3)c(NC(=O)c3ccc(=O)n(-c4c(F)cccc4F)n3)ccc21` [Example 102, (R)-N-(4-(2-tert-butyl)-4-(3-hydroxypyrrolidin-1-yl)-1-methyl-1H-benzo 112 midazolezol-5-yl)-1-(2,6-difluorophenyl)-6-oxo-1,6-dihydropyridazine-3-carboxamide], over 7.00. Under `Cn1c(C(C)(C)C)nc2c(N3CCC[C@H]3CN)c(NC(=O)c3ccc(=O)n(-c4c(F)cccc4F)n3)ccc21` [Example 103] stands over 7.00; under `C[C@@H]1CN(c2c(NC(=O)c3ccc(=O)n(-c4c(F)cccc4F)n3)ccc3c2nc(C(C)(C)C)n3C)C[C@@H]1N` [Example 104, N-(4-((3R,4R)-3-amino-4-methylpyrrolidin-1-yl)-2-(tert-butyl)-1-methyl-1H-benzo 112 midazolezol-5-yl)-1-(2,6-difluorophenyl)-6-oxo-1,6-dihydropyridazine-3-carboxamide], over 7.00. The compound `Cn1c(C(C)(C)C)nc2c(N3CCC(N)(CO)C3)c(NC(=O)c3ccc(=O)n(-c4c(F)cccc4F)n3)ccc21` (stereo not shown) [Example 105, N-(4-(3-amino-3-(hydroxymethyl)pyrrolidin-1-yl)-2-(tert-butyl)-1-methyl-1H-benzo[d]imidazol-5-yl)-1-(2,6-difluorophenyl)-6-oxo-1,6-dihydropyridazine-3-carboxamide] gave a pIC50 of over 7.00. Under `Cc1nc2c(N3CC[C@H](N)C3)c(NC(=O)c3ccc(=O)n(-c4c(F)cccc4F)n3)ccc2n1C1CCN(C)CC1` [Example 106, (S)—N-(4-(3-aminopyrrolidin-1-yl)-2-methyl-1-(1-methylpiperidin-4-yl)-1H-benzo[d]imidazol-5-yl)-1-(2,6-difluorophenyl)-6-oxo-1,6-dihydropyridazine-3-carboxamide] stands over 7.00; under `Cc1nc2c(N3CC[C@H](N)C3)c(NC(=O)c3ccc(=O)n(-c4c(Cl)cccc4Cl)n3)ccc2n1C` [Example 107, (S)—N-(4-(3-aminopyrrolidin-1-yl)-1,2-dimethyl-1H-benzo[d]imidazol-5-yl)-1-(2,6-dichlorophenyl)-6-oxo-1,6-dihydropyridazine-3-carboxamide], 6.00 to 7.00; under `CC(C)c1nc2c(N3CC[C@@H](N)C3)c(NC(=O)c3ccc(=O)n(-c4c(F)cccc4F)n3)ccc2n1C` [Example 109, (R)—N-(4-(3-aminopyrrolidin-1-yl)-2-isopropyl-1-methyl-1H-benzo[d]imidazol-5-yl)-1-(2,6-difluorophenyl)-6-oxo-1,6-dihydropyridazine-3-carboxamide], over 7.00. As for `CC(C)c1nc2c(N3C[C@@H](C)[C@@H](N)C3)c(NC(=O)c3ccc(=O)n(-c4c(F)cccc4F)n3)ccc2n1C` [Example 110, N-(4-((3R,4R)-3-amino-4-methylpyrrolidin-1-yl)-2-isopropyl-1-methyl-1H-benzo[d]imidazol-5-yl)-1-(2,6-difluorophenyl)-6-oxo-1,6-dihydropyridazine-3-carboxamide], the pIC50 was over 7.00. On to `CC(C)c1nc2c(N3C[C@H](C)[C@@H](N)C3)c(NC(=O)c3ccc(=O)n(-c4c(F)cccc4F)n3)ccc2n1C` [Example 111, N-(4-((3R,4S)-3-amino-4-methylpyrrolidin-1-yl)-2-isopropyl-1-methyl-1H-benzo[d]imidazol-5-yl)-1-(2,6-difluorophenyl)-6-oxo-1,6-dihydropyridazine-3-carboxamide], for which the pIC50 is over 7.00. With `CC(C)c1nc2c(N3CC4C[C@]4(N)C3)c(NC(=O)c3ccc(=O)n(-c4c(F)cccc4F)n3)ccc2n1C` (stereo partly drawn) [Example 112, N-(4-((1R)-1-amino-3-azabicyclo[3.1.0]hexan-3-yl)-2-isopropyl-1-methyl-1H-benzo[d]imidazol-5-yl)-1-(2,6-difluorophenyl)-6-oxo-1,6-dihydropyridazine-3-carboxamide] the figure was over 7.00; with `CC(C)c1nc2c(N3C[C@H](N)C4(COC4)C3)c(NC(=O)c3ccc(=O)n(-c4c(F)cccc4F)n3)ccc2n1C` [Example 113, (R)-N-(4-(8-amino-2-oxa-6-azaspiro[3.4]octan-6-yl)-2-isopropyl-1-methyl-1H-benzo[d]imidazol-5-yl)-1-(2,6-difluorophenyl)-6-oxo-1,6-dihydropyridazine-3-carboxamide], over 7.00; with `CC(C)n1cc2c(N3CC[C@@H](N)C3)c(NC(=O)c3ccc(=O)n(-c4c(F)cccc4F)n3)ccc2n1` [Example 114, (R)-N-(4-(3-aminopyrrolidin-1-yl)-2-isopropyl-2H-indazol-5-yl)-1-(2,6-difluorophenyl)-6-oxo-1,6-dihydropyridazine-3-carboxamide], over 7.00. Compound `CC(C)c1nc2c(N3CC[C@H](CN)C3)c(NC(=O)c3ccc(=O)n(-c4c(F)cccc4F)n3)ccc2n1C` [Example 115, (R)-N-(4-(3-(aminomethyl)pyrrolidin-1-yl)-2-isopropyl-1-methyl-1H-benzo[d]imidazol-5-yl)-1-(2,6-difluorophenyl)-6-oxo-1,6-dihydropyridazine-3-carboxamide] gave a pIC50 of over 7.00.

Consider `CC(C)c1nc2c(N3CC[C@@H](CN)C3)c(NC(=O)c3ccc(=O)n(-c4c(F)cccc4F)n3)ccc2n1C` [Example 116, (S)-N-(4-(3-(aminomethyl)pyrrolidin-1-yl)-2-isopropyl-1-methyl-1H-benzo[d]imidazol-5-yl)-1-(2,6-difluorophenyl)-6-oxo-1,6-dihydropyridazine-3-carboxamide], for which the pIC50 is over 7.00.

Regarding `CC(C)c1nc2c(N3CC[C@@H](O)C3)c(NC(=O)c3ccc(=O)n(-c4c(F)cccc4F)n3)ccc2n1C` [Example 117, (R)-1-(2,6-difluorophenyl)-N-(4-(3-hydroxypyrrolidin-1-yl)-2-isopropyl-1-methyl-1H-benzo[d]imidazol-5-yl)-6-oxo-1,6-dihydropyridazine-3-carboxamide], the pIC50 was over 7.00.

`CC(C)c1nc2c(N3CC4[C@@H](N)[C@@H]4C3)c(NC(=O)c3ccc(=O)n(-c4c(F)cccc4F)n3)ccc2n1C` (stereo partly drawn) [Example 118, N-(4-((1R,5S,6s)-6-amino-3-azabicyclo[3.1.0]hexan-3-yl)-2-isopropyl-1-methyl-1H-benzo[d]imidazol-5-yl)-1-(2,6-difluorophenyl)-6-oxo-1,6-dihydropyridazine-3-carboxamide]: the pIC50 was over 7.00. With `CC(C)c1nc2c(N3CC4C(N)C4C3)c(NC(=O)c3ccc(=O)n(-c4c(F)cccc4F)n3)ccc2n1C` [Example 119, N-(4-((1R,5S,6r)-6-amino-3-azabicyclo[3.1.0]hexan-3-yl)-2-isopropyl-1-methyl-1H-benzo[d]imidazol-5-yl)-1-(2,6-difluorophenyl)-6-oxo-1,6-dihydropyridazine-3-carboxamide] the figure was over 7.00; with `CC(C)c1nc2c(N3CC[C@@H](N)C3)c(NC(=O)c3nn(-c4c(F)cccc4F)c(=O)cc3Cl)ccc2n1C` [Example 120, (R)-N-(4-(3-aminopyrrolidin-1-yl)-2-isopropyl-1-methyl-1H-benzo[d]imidazol-5-yl)-4-chloro-1-(2,6-difluorophenyl)-6-oxo-1,6-dihydropyridazine-3-carboxamide], over 7.00.
